The text below walks through data of publication PMC9841531, “Indole Derivatives as New Structural Class of Potent and Antiproliferative Inhibitors of Monocarboxylate Transporter 1 (MCT1; SLC16A1)” (Journal of Medicinal Chemistry, 2022).

Assay [1] deals with MCT1-expressing A-549 cells. In words: MTT-based efficacy assay, 33 in combination with test compound, A-549. Format: cell-based. Conditions: Homo sapiens, A549; 33 alone, 72 h; read-out: A-549 cell toxicity 33 + 0 nM test cmpd. GI50 ± SEM. As to the method:
MCT1 inhibition anticipates challenging cancer cell energy supply and, thus, increases the efficacy of anticancer agents.
For this purpose, 10 μL of compounds 24 or 30 (50 nM, 100 nM, or 500 nM) was transferred onto a colorless flat-bottom 96-well microplate and complemented with 180 μL of a cell suspension containing either approximately 5,000 A-549 cells. A dilution series of compound 33 at concentrations between 50 nM and 50 μM was generated, and 10 μL of each concentration was transferred onto the plate. The observed effects of compounds 24 and 30 were compared to the effect of compound 33 alone on A-549. The plates were incubated for 72 h at 37 °C and a 5% CO2-humidified atmosphere, before subsequent processing with the regular MTT assay as described above.[43]

The subject of a further assay is A-549 cells. In words: cell cycle distribution analysis, PI flow cytometry. Format: cell-based. Conditions: 5 μM, 24 h. As to the method:
The antineoplastic agent 33 (5 μM) was used as a reference. […] Compound 24 caused a disruption of the cell cycle of A-549 cancer cells, indicated by a shift from the predominant G0/G1 phase (Figure 8A) to the apoptotic sub-G1 phase as well as the G2/M phase (Figure 8B). A similar G2/M arrest could be observed for reference compound 33 (Figure 8C); however, MCT1 inhibitor 24 led to a larger fraction of cells into the sub-G1 phase, indicating induced apoptosis. This experiment discovered that compound 24 inhibits cell proliferation, causing cell cycle arrest and, eventually, apoptosis. To confirm our findings, we conducted an apoptosis assay using compound 24.
A standard PI staining procedure was used as described earlier[44]−[46] to determine the effect of compounds 24 and 33 on cell cycle progression, followed by flow cytometry analysis (FACS Aria SORP and FACS Aria Fusion, BD Biosciences, Franklin Lakes, NJ). In brief, A-549 cells were seeded onto a 6-well plate (250,000 cells/well) and incubated for 24 h at 37 °C under a 5% CO2-humidified atmosphere before being observed under a microscope. The cells were treated with compound 24 (5 μM) or 33 (5 μM) and further incubated for 24 h at 37 °C under a 5% CO2-humidified atmosphere. Then, the cells were harvested and washed twice with cold PBS (Genetix Biotech Asia, New Delhi, India) before being fixed overnight in ice-cold 70% (v/v) ethanol at 4 °C. The cells were again washed two times with PBS and subsequently resuspended with RNase (100 μg/mL; HiMedia, Mumbai, India) and their DNA was stained with PI (40 μg/mL; Sigma-Aldrich, Mumbai, India) before being incubated in the dark for 10 min. The DNA content was measured at the Indian Institute of Technology Bombay (IITB, Mumbai, India) by applying flow cytometry.
For orientation: In flow cytometry, cells or beads pass a laser one at a time.

A further assay relates to A2780 cells. The experiment in a line: MTT-based cell toxicity of 33 on sensitive A2780 cells. Conditions: Homo sapiens, 33 alone, 72 h, read-out: A2780 cell toxicity 33 + 0.0 μM cmpd. GI50 ± SEM. The protocol: (§1) This sensitization is indicated by a shift of the concentration-effect curve of compound 33 from the right (=high concentrations of 33 needed to induce A2780/ADR cell death) to the left (=lower concentrations of 33 needed to induce A2780/ADR cell death). The concentration-effect curve of compound 33 in combination with 5 μM of either compound 24 or 30 resembles the concentration-effect curve of the sensitive cell line A2780. […] Thus, their potentiating effect with respect to the antiproliferative agent 33 against ABCB1-expressing A2780/ADR cells is due to the inhibition of ABCB1. Therefore, compounds 24 and 30 were dually effective against MCT1- and ABCB1-expressing cells (Table 5).
(§2) An MDR-reversal assay[2],[55]−[59] was used to investigate the ability to reverse ABCB1-mediated MDR in A2780/ADR cells toward the cytotoxic ABCB1 substrate 33. […] A dilution series of 33 at concentrations between 0.1 μM and 100 μM was generated, and 20 μL of each concentration was transferred onto the plates (final concentration: 0.01–10 μM). The plates were incubated for 72 h at 37 °C and a 5% CO2-humidified atmosphere, before subsequent processing with the regular MTT assay as described above. The observed effects of compounds 24 and 30 were compared to the effect of 33 alone on A2780/ADR cells as well as its sensitive counterpart A2780 (∼10,000 cells/well).

The test system of assay [2] is ABCB1-expressing A2780/ADR cells. In words: MTT-based efficacy (MDR-reversal) assay, 33 in combination with test compound, A2780/ADR. Format: cell-based. Conditions: A2780 ADR; 33 alone, 72 h; read-out: A2780/ADR cell toxicity 33 + 0.0 μM cmpd. GI50 ± SEM. As to the method: as §1, §2

Consider `COc1cccc2c1C(=O)c1c(O)c3c(c(O)c1C2=O)C[C@@](O)(C(=O)CO)C[C@@H]3O[C@H]1C[C@H](N)[C@H](O)[C@H](C)O1` [Compound 33, doxorubicin, reference compound], for which, in assay [1], the GI50 is 47.6 ± 0.7 nM. In the assay with A-549 cells, the “cells in G0/G1 phase” value is reported as 41.1%, the “cells in G2/M phase” value is 26.2%, the “cells in S phase” value is given as 27.4% and the “cells in Sub-G1 phase” value turned out to be 4.00%. In addition, the GI50 in the assay with A2780 cells came to 19.4 ± 1.7 nM. Moreover, in assay [2], the GI50 worked out at 802 ± 81 nM.
